From paper PMC8362126, “Proteolysis Targeting Chimera (PROTAC) for Macrophage Migration Inhibitory Factor (MIF) Has Anti‐Proliferative Activity in Lung Cancer Cells” (Angewandte Chemie (International Ed. in English), 2021)
Values joined by “and” are separate entries in the source; they are usually repeats but may differ in a detail not shown here. Identical values can stand only once. “Also recorded” adds a separate entry of the source.

Legend:
[1] = molecular target: T1, MIF (Homo sapiens, UniProt P14174); assay: MIF degradation in A549 cells, cell lysate-based ELISA; parameters: endogenous in cells; host or cells: A549 (ATCC CCL-185); conditions: for degradation [%] 2 μM / degradation (%) 20 µM / Dmax at 20 µM: vs DMSO, mean±SD n=3
T1 sequence (P14174 2-115 limits assumed): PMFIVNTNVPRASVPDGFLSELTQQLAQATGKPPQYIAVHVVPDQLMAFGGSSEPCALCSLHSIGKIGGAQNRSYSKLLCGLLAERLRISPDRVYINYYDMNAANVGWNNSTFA
Procedure: In addition, A549 cells have been successfully used for assessing activity of cereblon ligand‐based PROTACs previously.[42] Therefore, A549 is a suitable cell line for evaluating the effect of our putative MIF‐directed PROTACs MD1 to MD12 on MIF protein levels. The reduction in MIF levels were monitored in A549 cells that were treated with two different PROTAC concentrations (20 and 2 μM) for 12 h in order to estimate the dose dependency, which is important for PROTACs because of the Hook effect.[35] The MIF levels in cell lysates were analyzed using an enzyme‐linked immunosorbent assay (ELISA).
S3. ELISA screening of MIF protein level on MIF-directed PROTACs
Cell culture. Human A549 lung cancer cells (ATCCCCL-185) or HEK293 kidney […]
containing 10% (v/v) fetal bovine serum (FBS), 100 U/mL penicillin/streptomycin […]
ELISA. 7×10^5 A549 cells per well were plated in 6-well plates. The next day, cells were treated with a solution of compounds or the vehicle for 12 h. Subsequently, the culture medium was removed and cells were washed twice with cold PBS and collected after trypsin (0.5 mL) degestion. Cells were then lyzed in lysis buffer (150 mM NaCl, 50 mM Hepes pH 7.5, 5 mM EDTA, 0.1% (w/v) NP40) containing protease inhibitor cocktail (Roche, #11836153001) and resuspended vigourously. The supernatant was collected after spinning down at 16 000g at 4 °C for 30 min. The total protein concentration was determined with PierceTM BCA protein assay kit ( ThermoFisher , #23225). The protein concentration was normalized between samples. The relative MIF levels from 1µg total protein were determined by ELISA with the human MIF DuoSet ELISA kit according to the instructions of the manufacturer (R&D systems, #DY289).
Figure S1. Screening of compounds for MIF degradation activity by cell lysate -based ELISA.
A549 cells were treated with compounds at (A) 20 or (B) 2 µM for 12 h. Data was normalized […]
(1 picture or pasted object on this page, not shown here)

[2] = molecular target: T1, MIF; assay: MIF catalyzed 4-HPP tautomerization assay; assay type: biochemical; conditions: for IC50: 4-HPP conversion assay; for Ki: MIF catalyzed 4-HPP tautomerization, n=3
Procedure: S2. MIF Tautomerase activity IC50 study
The protocol for measuring inhibition of MIF tautomerase enzyme activity and enzyme kinetics was described previously.[8] Briefly, 180 µL of a 500 nM MIF solution in boric acid buffer (435 mM, pH 6.2) was mixed with 10 µL of a 20 mM EDTA solution in demiwater and 10 µL of a solution of the desired compound dissolved in DMSO or blanc DMSO. This mixture was pre-incubated at room temperature for 10 min. Next, 50 µL of this mixture was mixed with 50 µL of a 1 mM 4-HPP solution in ammonium acetate buffer (50 mM, pH 6.0). Subsequently, MIF tautomerase activity was monitored by measuring the increase of UV absorbance at 306 nm over time. MIF tautomerase activity in the presence a blank DMSO dilution was set to 100% enzyme activity. Non-catalyzed conversion of the substrate in absence of MIF was set to 0%.
Data from the first three minutes were used to calculate the initial velocities. All experiments were repeated three times and calculations were performed with the program GraphPad Prism.
Table S1. 4-HPP conversion assay results of MIF PROTACs
(also on this page, place not known: p rotocol previously. subs trate log [MD-1] (10^-6 M) Activity of MIF tautomerase(%) -2 -1 0 1 2 0 50 100 log [MD-2] (10^-6 M) Activity of MIF tautomerase(%) -2 -1 0 1 2 0 50 100)

[3] = molecular target: T1, MIF; assay: MIF degradation in A549 cells, cell lysate-based ELISA; parameters: endogenous in cells; host or cells: A549 (ATCC CCL-185); conditions: 12 h, vs DMSO, mean±SD n=3
[4] = molecular target: T1, MIF; assay: MIF degradation in A549 cells, western-blot; assay type: cell-based; parameters: endogenous in cells; host or cells: A549 (ATCC CCL-185); conditions: A549 cells; for rescue of MD9 mediated MIF degradation: 2 hours pretreatment (1 100 µM, 3 50 µM, 4 50 µM, Bortezomib), then 10 µM MD9 12 h; for rescue of MD13 mediated MIF degradation: co-treatment (Bortezomib) or 1 hour pretreatment (3, 4) with MD13
Procedure: The concentration dependence of PROTAC MD13‐mediated induction of MIF degradation in A549 cells was investigated using western‐blot. […] The MIF levels were normalized to the vehicle treated control and plotted to the respective MD13 concentrations. This provided a DC50 of around 100 nM and a maximal degradation of around 90–95 % at concentrations higher than 1 μM (Figure 3 B). The DC50 of MD13 measured by ELISA assay was about 200 nM (Figure 3 C), which is in line with the result from western‐blot. […]
Cell lysates were prepared using the protocol described above. About 10−40 μg of total protein was mixed with the 4× Laemmli Loading Dye (250 mM Tris, pH 6.8, 40% glycerol, 5% SDS, 0.005% bromophenol blue, 4% β-mercaptoethanol) and heated at 95−100 °C for 5 min and loaded onto a 12% Bis-Tris gel (Bio-Rad Laboratories, #4561084) and proteins were separated at 120V. Afterwards, proteins were transferred to polyvinylidene fluoride (PVDF) membranes, subsequently non-specific antibody binding was blocked with 5% nonfat dry milk (BIO-RAD, #1706404) in TBST buffer and incubated overnight at 4 °C with one of the following primary antibodies: anti-MIF (1:1000, ThermoFisher, #PA5-27343 ) or anti-β-actin (1:10000 Cell Signalling, #8457). The membranes were further incubated with a goat anti-rabbit HRP-conjugated secondary antibody (1:2000, DAKO, p0448) for 2 h at room temperature. Proteins were visualized with an ECLTM Prime Western Blotting System (GE Healthcare #RPN2232). The immunoblot was generated by ChemiDoc MP Imaging Systems (Bio-Rad) and analyzed by the ImageJ software. […]
As a control, the same experiment was repeated and analyzed by a western-blot assay (Figure 3B). The potency estimated from the Western blot assay was 1 µM (Figure 3C), which is consistent with the result from the ELISA assay. The “Hook effect” […]

SMILES	degradation [%] 2 μM ([1]; A549 cells, 12 h)	IC50 [2] [nM]	Ki [2] [nM]	Dmax at 20 µM ([1]; A549, 12 h, A549 cells, 12 h) [%]	other results
O=C1CCC(N2C(=O)c3cccc(NC(=O)Cc4ccc(-n5cc(CCCC(=O)Nc6ccc(-c7cc8ccc(O)cc8oc7=O)cc6)nn5)cc4)c3C2=O)C(=O)N1 (centres unmarked) [MD6]	n.s.	1500 ± 130	999 ± 87	–	degradation (%) 20 µM ([1]; A549 cells, 12 h): n.s. and did not trigger MIF reduction
O=C1CCC(N2C(=O)c3cccc(NC(=O)CCCc4cn(CC(=O)Nc5ccc(-c6cc7ccc(O)cc7oc6=O)cc5)nn4)c3C2=O)C(=O)N1 (centres unmarked) [MD3]	n.s.	182 ± 16	121 ± 11	22 ± 9	–
O=C1CCC(N2C(=O)c3cccc(NCc4cn(CCC(=O)Nc5ccc(N6Cc7ccc(O)cc7OC6=O)cc5)nn4)c3C2=O)C(=O)N1 (centres unmarked) [MD10]	55±9%	147 ± 13	98 ± 9	–	–
O=C1CCC(N2C(=O)c3cccc(NCc4cn(CC(=O)Nc5ccc(-c6cc7ccc(O)cc7oc6=O)cc5)nn4)c3C2=O)C(=O)N1 (centres unmarked) [MD1]	n.s.	262 ± 35	175 ± 23	16 ± 7	–
O=C1CCC(N2C(=O)c3cccc(NC(=O)CCCCc4cn(CC(=O)Nc5ccc(-c6cc7ccc(O)cc7oc6=O)cc5)nn4)c3C2=O)C(=O)N1 (centres unmarked) [MD4]	n.s.	233 ± 26	155 ± 17	50 ± 3	–
COc1ccc(-c2cc3ccc(O)cc3oc2=O)cc1 [compound 2, reference compound]	–	–	370 ± 30	–	–
O=C1CCC(N2C(=O)c3cccc(NCCCCC(=O)Nc4ccc(N5Cc6ccc(O)cc6OC5=O)cc4)c3C2=O)C(=O)N1 (centres unmarked) [MD7]	n.s.	82 ± 4	55 ± 3	–	Dmax at 20 µM ([1]; A549 cells, 12 h): 61 ± 7%
O=C(Cc1ccc(N2Cc3ccc(O)cc3OC2=O)cc1)NCc1cn(-c2ccc(CC(=O)Nc3cccc4c3C(=O)N(C3CCC(=O)NC3=O)C4=O)cc2)nn1 (centres unmarked) [MD12]	n.s.	138 ± 6	92 ± 4	38 ± 6	–
O=C(CCCCNc1cccc2c1C(=O)N(C1CCC(=O)NC1=O)C2=O)NCc1ccc(N2Cc3ccc(O)cc3OC2=O)cc1 (centres unmarked) [MD8]	21±7%	129 ± 8	86 ± 5	–	Dmax at 20 µM ([1]; A549 cells, 12 h): 51 ± 4%
O=C1CCC(N2C(=O)c3cccc(NCCCCCCCCCC(=O)Nc4ccc(N5Cc6ccc(O)cc6OC5=O)cc4)c3C2=O)C(=O)N1 (centres unmarked) [MD14]	64±2%	97 ± 6	65 ± 4	–	degradation [%] 0.2 μM [3]: 51±2%
O=C1CCC(N2C(=O)c3cccc(NC(=O)CCc4cn(CC(=O)Nc5ccc(-c6cc7ccc(O)cc7oc6=O)cc5)nn4)c3C2=O)C(=O)N1 (centres unmarked) [MD2]	n.s.	288 ± 25	192 ± 17	31 ± 3	–
O=C1CCC(N2C(=O)c3cccc(NC(=O)CCCCc4cn(CCC(=O)Nc5ccc(-c6cc7ccc(O)cc7oc6=O)cc5)nn4)c3C2=O)C(=O)N1 (centres unmarked) [MD5]	n.s.	895 ± 82	597 ± 55	58 ± 8	–
CC(C)C[C@H](NC(=O)[C@H](Cc1ccccc1)NC(=O)c1cnccn1)B(O)O [Bortezomib]	–	–	–	–	rescue of MD9 mediated MIF degradation [4]: considerably decreased; also recorded: rescued; rescue of MD13 mediated MIF degradation [4]: inhibited the degradation of MIF; rescue of MD13 mediated MIF degradation ([4]; listed as bortezomib): able to abolish the MD13 triggered degradation
COC(=O)CC1CC(c2ccc(O)cc2)=NO1 (centres unmarked) [compound 1, ISO 1]	–	–	–	–	rescue of MD9 mediated MIF degradation [4]: partial to complete rescue; also recorded: rescued
O=C1CCC(N2C(=O)c3cccc(NC(=O)CCCc4cn(CCC(=O)Nc5ccc(N6Cc7ccc(O)cc7OC6=O)cc5)nn4)c3C2=O)C(=O)N1 (centres unmarked) [MD11]	n.s.	143 ± 11	95 ± 7	–	degradation (%) 20 µM ([1]; A549 cells, 12 h): 40±8%
O=C1CCC(N2C(=O)c3cccc(NCCCCCCC(=O)Nc4ccc(N5Cc6ccc(O)cc6OC5=O)cc4)c3C2=O)C(=O)N1 (centres unmarked) [MD9]	55±4%	76 ± 4	51 ± 3	92 ± 10	Dmax ([1]; A549, A549 cells, 12 h, ELISA, read-out: maximal degradation): > 90%; DC50 ([1]; A549 cells, 12 h, ELISA, read-out: half-maximal degradation concentration (DC50)): 1500 nM and ~1500 nM; Hook effect ([1]; A549 cells, at 20 μM, ELISA and western-blot): Hook effect; degradation [%] 0.2 μM [3]: 24±4%; DC50 ([4]; 12 h, western-blot, read-out: DC50 (potency estimated from western blot)): 1000 nM and ~1500 nM; time of treatment after which MIF degradation becomes visible ([4]; MD9 at 10 μM): 3 h
